Data from ChEMBL document CHEMBL1156589, “2-Arylpyrimidines: novel CRF-1 receptor antagonists” (Bioorg Med Chem Lett, 2008).
≈ marks a conversion by molar mass, not a printed value.

Experiments:
[1] = Half life in Sprague-Dawley rat at 20 mg/kg, po and 3 mg/kg, iv; assay type: ADME, organism-based; conditions: in vivo
[2] = Clearance in Sprague-Dawley rat at 20 mg/kg, po and 3 mg/kg, iv; assay type: ADME, organism-based; conditions: in vivo
[3] = biological target: T1, Corticotropin-releasing factor receptor 1 (Homo sapiens, UniProt P34998); assay: Antagonist activity at CRF1 receptor expressed in mouse AtT20 cells assessed as inhibition of sauvagine-stimulated cAMP accumulation; assay type: functional, cell-based
T1 sequence (P34998 whole entry): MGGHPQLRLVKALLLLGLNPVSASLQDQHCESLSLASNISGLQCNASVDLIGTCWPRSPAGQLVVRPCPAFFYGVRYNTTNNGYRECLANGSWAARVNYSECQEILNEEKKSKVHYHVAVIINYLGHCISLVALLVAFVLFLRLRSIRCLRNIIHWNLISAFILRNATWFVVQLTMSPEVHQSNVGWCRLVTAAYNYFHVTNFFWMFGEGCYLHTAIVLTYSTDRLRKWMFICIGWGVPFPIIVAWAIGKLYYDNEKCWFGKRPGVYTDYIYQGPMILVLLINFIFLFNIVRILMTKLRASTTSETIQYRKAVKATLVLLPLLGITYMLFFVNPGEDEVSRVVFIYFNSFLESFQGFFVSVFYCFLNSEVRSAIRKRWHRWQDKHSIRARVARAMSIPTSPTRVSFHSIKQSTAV

[4] = Tmax in Sprague-Dawley rat at 20 mg/kg, po and 3 mg/kg, iv; assay type: ADME, organism-based; conditions: in vivo
[5] = Oral bioavailability in Sprague-Dawley rat at 20 mg/kg; assay type: ADME, organism-based; conditions: in vivo
[6] = Cmax in Sprague-Dawley rat at 20 mg/kg, po and 3 mg/kg, iv; assay type: ADME, organism-based; conditions: in vivo
[7] = Volume of distribution in Sprague-Dawley rat at 20 mg/kg, po and 3 mg/kg, iv; assay type: ADME, organism-based; conditions: in vivo
[8] = Solubility in 0.1 N hydrochloric acid; assay type: physicochemical
[9] = biological target: T1, Corticotropin-releasing factor receptor 1; assay: biochemical; assay type: cell-based, IMR-32
Description: Displacement of [125I]sauvagine from human CRF1 receptor expressed in IMR32 cells

`CCCN(CCC)c1c(C)nc(-c2c(C)cc(C)cc2OC)c2ccccc12` gave a half-life [1] of 5.4 h, a clearance [2] of 14.5 mL/min/kg and an IC50 [3] of 12 nM. For the same compound, the Tmax [4] was 0.7 h, the bioavailability [5] was 5% and the Cmax [6] was 387 ng/mL. For the same compound, the Vd [7] was 13 L/kg and the solubility [8] was under 0.5 µg/mL.
In the case of `CCC(CC)Nc1c(C)nc(-c2c(C)cc(C)cc2OC)nc1OC`, the Ki [9] is reported as 94 nM.
For `CCCN(CCC)c1c(CC(C)O)nc(-c2c(C)cc(C)cc2OC)nc1OC` (stereo not given), the Ki [9] was 1150 nM.
Work on `CCCN(CCC)c1c(C)nc(-c2ccc(Cl)cc2Cl)nc1OC` yielded a Ki [9] of over 10000 nM.
`CCCN(CCC)c1c(C)nc(-c2c(C)cc(C)cc2OC)nc1OC(C)C` gave a Ki [9] of over 5000 nM.
Work on `CCCN(CCC)c1c(C)nc(-c2c(C)cc(C)cc2OC)nc1OCCO` yielded a Ki [9] of 1610 nM.
Compound `CCCc1nc(-c2c(C)cc(C)cc2OC)nc(OC)c1N(CCC)CCC` has a Ki [9] of 76 nM.
Work on `CCCN(CCC)c1c(C)nc(-c2c(C)cc(C)cc2OC)nc1OC` yielded a Ki [9] of 15 nM.
`CCCNc1c(C)nc(-c2c(C)cc(C)cc2OC)nc1OC` gave a Ki [9] of over 10000 nM.
`COc1cc(C)cc(C)c1-c1nc(C)c(NCC(C)(C)C)c(OC)n1` showed a Ki [9] of over 10000 nM.
With `CCCN(CCC)c1c(C)nc(-c2c(OC)cc(C(F)(F)F)cc2C(F)(F)F)nc1OC` the Ki [9] was 6 nM.
In the case of `CCC(CC)Oc1c(C)nc(-c2c(C)cc(C)cc2OC)nc1OC`, the IC50 [3] is reported as 19 nM and the Ki [9] is reported as 8 nM.
`CCC(CC)Oc1c(C)nc(-c2c(OC)cc(Cl)cc2OC)nc1OC` showed a half-life [1] of 8.3 h, a clearance [2] of 13.6 mL/min/kg and an IC50 [3] of 7 nM. It also gave a Tmax [4] of 1.8 h, a bioavailability [5] of 6% and a Cmax [6] of 194 ng/mL. The Ki [9] was 9 nM, the Vd [7] was 14 L/kg and the solubility [8] was 28 µg/mL (≈ 73.5 µM).
For `CCC(CC)c1cc(C)nn2c(-c3sc(N4CCOCC4)nc3Cl)c(C)nc12`, the Ki [9] was 0.2 nM.
`CCCN(CCC)c1c(C)nc(-c2c(C)cc(C)cc2OC)nc1OCC` showed a Ki [9] of 16 nM.
With `CCCN(CCC)c1c(C)nc(-c2c(C)cc(C)cc2OC)nc1Cl` the Ki [9] was 33 nM.
Compound `CCCN(CCC)c1cnc(-c2c(C)cc(C)cc2OC)nc1C` has a Ki [9] of 561 nM.
With `CCC(CC)Oc1c(C)nc(-c2c(OC)cc(C(F)F)cc2OC)nc1OC` the Ki [9] was 9 nM.
For `CCCN(CCC)c1c(C)nc(-c2c(OC)cccc2OC)nc1OC`, the Ki [9] was 277 nM.
`CCCN(CCC)c1c(CC(C)(C)O)nc(-c2c(C)cc(C)cc2OC)nc1OC` showed a Ki [9] of 604 nM.
`CCCN(CCC)c1c(CC)nc(-c2c(C)cc(C)cc2OC)nc1OC` gave a Ki [9] of 22 nM.
`CCCN(CCC)c1c(C)nc(-c2c(OC)cc(Cl)cc2OC)nc1OC` gave a half-life [1] of 2.8 h, a clearance [2] of 21 mL/min/kg and an IC50 [3] of 1 nM. The Tmax [4] was 0.6 h, the bioavailability [5] was 2% and the Cmax [6] was 210 ng/mL. The Ki [9] was 2 nM, the Vd [7] was 12 L/kg and the solubility [8] was 27 µg/mL (≈ 68.5 µM).
With `CCCN(CCC)c1c(C)nc(-c2ccc(OC)cc2OC)nc1OC` the Ki [9] was 507 nM.
Compound `CCCN(CCC)c1c(C)nc(-c2c(C)cc(C)cc2C)nc1OC` has a Ki [9] of 354 nM.
Work on `CCCOc1nc(-c2c(C)cc(C)cc2OC)nc(C)c1N(CCC)CCC` yielded a Ki [9] of 53 nM.
`CCCCN(CC)c1nc(C)nc2c1c(C)cn2-c1c(C)cc(C)cc1C` [CP-154526] gave a Ki [9] of 3 nM.
